Reference: patent publication US20040157738A1, “Novel oxygen containing fused cyclic derivatives and herbicidal, desiccant and defoliate compositions containing them” (ISHIHARA SANGYO KAISHA, LTD., priority 2003, published 2004)

How the values were obtained:
Type in all cases: in vivo
[1] = system: prickly sida (Sida spinosa L.), SIDSP; assay: Test Example 2: post-emergence (foliage treatment) herbicidal activity (growth controlling degree); conditions: 0.3-0.5 leaf stage
Source text: (§1) Upland field soil was put into a 1/170,000 ha pot, and seeds of various plants were sown. Then, when the plants reached predetermined leaf stages [I. barnyardgrass (Echinochloa crus-galli L.), ECHCG: 1.8-2.4 leaf stage, 2. crabgrass (Digitaria sanguinalis L.), DIGSA: 1.5-2.2 leaf stage, 3. green foxtail (Setaria viridis L.), SETVI: 1.7-2.5 leaf stage, 4. redroot pigweed (Amaranthus retroflexus L.), AMARE: 0.1-0.3 leaf stage, 5. prickly sida (Sida spinosa L.), SIDSP: 0.3-0.5 leaf stage, 6. velvetleaf (Abutilon theophrasti), ABUTH: 0.3-0.4 leaf stage, 7. common cocklebur (Xanthium strumarium L.), XANST: 0.2-0.6 leaf stage, 8. rice (Oryza sativa L.), ORYSA: 1.6-2.2 leaf stage, 9. wheat (Triticum aestivum L.), TRZAX: 2.8 leaf stage, 10. corn (Zea mays L.), ZEAMX: 2.2-2.5 leaf stage, 11. soybean (Glycine max Merr.), GLXMA: 0.2-0.3 leaf stage], a wettable powder or emulsifiable concentrate having the compound of the present invention formulated in accordance with a usual formulation method, was weighed so that the active ingredient would be a predetermined amount, and diluted with water in an amount of 500 L/ha. To the diluted solution, 0.1%(v/v) of an agricultural spreader was added. The herbicide adjusted was applied by a small size sprayer for foliage treatment. On the […] day after the application of the herbicide, the growth of the respective plants was visually observed, and the herbicidal effects were evaluated by growth controlling degrees (%) ranging from 0 (equivalent to the untreated control) to 100 (complete kill), whereby the results shown in Table 12, were obtained. Compound Nos. in Table 12 correspond to Compound Nos. in Table 1 to 7 given hereinbefore.

[2] = system: velvetleaf (Abutilon theophrasti), ABUTH; assay: as above; conditions: 0.3-0.4 leaf stage
Source text: as §1

[3] = system: rice (Oryza sativa L.), ORYSA; assay: as above; conditions: 1.6-2.2 leaf stage
Source text: as §1

[4] = system: barnyardgrass (Echinochloa crus-galli L.), ECHCG; assay: as above; conditions: 1.8-2.4 leaf stage
Source text: as §1

[5] = system: redroot pigweed (Amaranthus retroflexus L.), AMARE; assay: as above; conditions: 0.1-0.3 leaf stage
Source text: as §1

[6] = system: corn (Zea mays L.), ZEAMX; assay: as above; conditions: 2.2-2.5 leaf stage
Source text: as §1

[7] = system: crabgrass (Digitaria sanguinalis L.), DIGSA; assay: as above; conditions: 1.5-2.2 leaf stage
Source text: as §1

[8] = system: green foxtail (Setaria viridis L.), SETVI; assay: as above; conditions: 1.7-2.5 leaf stage
Source text: as §1

[9] = system: soybean (Glycine max Merr.), GLXMA; assay: as above; conditions: 0.2-0.3 leaf stage
Source text: as §1

[10] = system: common cocklebur (Xanthium strumarium L.), XANST; assay: as above; conditions: Xanthium strumarium, 504 h, 31 g a.i./ha, 0.2-0.6 leaf stage
Source text: as §1

[11] = system: japanese bulrush (Scirpus juncoides: SCPJO); assay: Test Example 3: water application herbicidal activity, paddy (growth controlling degree); conditions: rate 63 g a.i./ha, water application under submerged condition, paddy pot, japanese bulrush at 0.5 leaf stage
Source text: (§2) Paddy field soil was put into a {fraction (1/1,000,000)} ha pot, and seeds of barnyardgrass (Echinochloa oryzicola: ECHOR) and japanese bulrush (Scirpus juncoides: SCPJO) were sown and slightly covered with soil. Then the pot was left to stand still in a greenhouse in a state where the depth of flooding water was from 0.5 to 1 cm, and one day later, tubers of japanese ribbon wapato (Sagittaria pygmaea: SAGPY) were planted. Thereafter, the depth of flooding water was maintained at a level of from 3 to 4 cm, and when barnyardgrass and japanese bulrush reached a 0.5 leaf stage, an aqueous diluted solution of a wettable powder or emulsifiable concentrate having the compound of the present invention formulated in accordance with a usual formulation method, was uniformly applied under submerged condition by a pipette so that the dose of the active ingredient would be at a predetermined level. On the other hand, paddy filed soil was put into a {fraction (1/1,000,000)} ha pot and puddled and leveled, and the depth of flooding water was from 3 to 4 cm. One day later, rice (Oryza sativa L.: ORYSA) of 2 leaf stage was transplanted in a depth of 3 cm. On the 4th day after the transplantation, the compound of the present invention was applied in the same manner as described above. On the 14th day after the application of the herbicide, the growth of barnyardgrass, japanese burlush and japanese ribbon wapato was visually observed and on the 21st day after the application of the herbicide, the growth of rice was visually observed, and the herbicidal effects were evaluated by growth controlling degrees (%) ranging from 0 (equivalent to the untreated control) to 100 (complete kill), whereby the results shown in Table 13, were obtained. Compound Nos. in Table 13 correspond to Compound Nos. in Table 1 to 7 given hereinbefore.

[12] = system: rice (Oryza sativa L.: ORYSA); assay: as above; conditions: rate 63 g a.i./ha, paddy pot, rice of 2 leaf stage transplanted, treated on the 4th day after transplantation
Source text: as §2

[13] = system: barnyardgrass (Echinochloa oryzicola: ECHOR); assay: as above; conditions: rate 63 g a.i./ha, water application under submerged condition, paddy pot, barnyardgrass at 0.5 leaf stage
Source text: as §2

[14] = system: japanese ribbon wapato (Sagittaria pygmaea: SAGPY); assay: as above; conditions: rate 63 g a.i./ha; water application under submerged condition, paddy pot; tubers of japanese ribbon wapato planted
Source text: as §2

[15] = system: crabgrass (Digitaria sanguinalis L.): DIGSA; assay: Test Example 1: pre-emergence herbicidal activity (growth controlling degree); conditions: 500 g a.i./ha, 20th to 21st day after application
Source text: (§3) Upland field soil was put into a 1/170,000 ha pot, and seeds of various plants [1. barnyardgrass (Echinochloa crus-galli L.): ECHCC, 2. crabgrass (Digitaria sanguinalis L.): DIGSA, 3. green foxtail (Setaria viridis L.): SETVI, 4. redroot pigweed (Amaranthus retroflexus L.): AMARE, 5. prickly sida (Sida spinosa L.): SIDSP, 6. velvetleaf (Abutilon theophrasti): ABUTH, 7. common cocklebur (Xanthium strumarium L.): XANST, 8. rice (Oryza sativa L.): ORYSA, 9. wheat (Triticum aestivum L.): TRZAX, 10. corn (Zea mays L.): ZEAMX, 11. soybean (Glycine max Merr.): GLXMA] were sown. Then, one day after the sowing, a wettable powder or emulsifiable concentrate having the compound of the present invention formulated in accordance with a usual formulation method, was weighed so that the active ingredient would be a predetermined amount, and diluted with water in an amount of 500 L/ha. The herbicide adjusted was applied by a small size sprayer for pre-emergence treatment. On the 20th to 21st day after the application of the herbicide, the growth of the respective plants was visually observed, and the herbicidal effects were evaluated by growth controlling degrees (%) ranging from 0 (equivalent to the untreated control) to 100 (complete kill), whereby the results shown in Table 11, were obtained. Compound Nos. in Table 11 correspond to Compound Nos. in Table 1 to 7 given hereinbefore.

[16] = system: prickly sida (Sida spinosa L.): SIDSP; assay: as above; conditions: 500 g a.i./ha, 20th to 21st day after application
Source text: as §3

[17] = system: barnyardgrass (Echinochloa crus-galli L.): ECHCC; assay: as above; conditions: 500 g a.i./ha, 20th to 21st day after application
Source text: as §3

[18] = system: green foxtail (Setaria viridis L.): SETVI; assay: as above; conditions: 500 g a.i./ha, 20th to 21st day after application
Source text: as §3

[19] = system: corn (Zea mays L.): ZEAMX; assay: as above; conditions: 500 g a.i./ha, 20th to 21st day after application
Source text: as §3

[20] = system: rice (Oryza sativa L.): ORYSA; assay: as above; conditions: 500 g a.i./ha, 20th to 21st day after application
Source text: as §3

[21] = system: common cocklebur (Xanthium strumarium L.): XANST; assay: as above; conditions: 500 g a.i./ha, 20th to 21st day after application
Source text: as §3

[22] = system: velvetleaf (Abutilon theophrasti): ABUTH; assay: as above; conditions: 500 g a.i./ha, 20th to 21st day after application
Source text: as §3

[23] = system: redroot pigweed (Amaranthus retroflexus L.): AMARE; assay: as above; conditions: 500 g a.i./ha, 20th to 21st day after application
Source text: as §3

SMILES: Cn1nc(-c2c(F)cc(Cl)c3c2CCC(C)(C)O3)c(Cl)c1OC(F)F [Compound 1-40, 4-chloro-3-(8-chloro-6-fluoro-3,4-dihydro-2,2-dimethyl-2H-1-benzopyran-5-yl)-5-(difluoromethoxy)-1-methyl-1H-pyrazole]
- pest or weed control at 31 g/ha ([1]; Sida spinosa, 504 h, 31 g a.i./ha): 100%
- pest or weed control at 31 g/ha ([2]; Abutilon theophrasti, 504 h, 31 g a.i./ha): 100%
- plant injury at 31 g/ha ([3]; Oryza sativa, 504 h, 31 g a.i./ha): 70%
- pest or weed control at 31 g/ha ([4]; Echinochloa crus-galli, 504 h, 31 g a.i./ha): 100%
- growth controlling degree, AMARE ([5]; 31 g a.i./ha): 100%
- plant injury at 31 g/ha ([6]; Zea mays, 504 h, 31 g a.i./ha): 70%
- pest or weed control at 31 g/ha ([7]; Digitaria sanguinalis, 504 h, 31 g a.i./ha, read-out: growth controlling degree, DIGSP): 100%
- pest or weed control at 31 g/ha ([8]; Setaria viridis, 504 h, 31 g a.i./ha): 100%
- pest or weed control at 31 g/ha ([9]; Glycine max, 504 h, 31 g a.i./ha): 60%
- pest or weed control at 31 g/ha [10]: 100%
- pest or weed control at 63 g/ha ([11]; Schoenoplectiella juncoides, 336 h): 100%
- pest or weed control at 63 g/ha ([12]; Oryza sativa, 504 h): 35%
- pest or weed control at 63 g/ha ([13]; Echinochloa oryzicola, 336 h): 100%
- Water Application Herbicidal Activity SAGPY (growth controlling degree) [14]: 95%

SMILES: CC1CCc2c(c(Cl)cc(F)c2-c2ncc(C(F)(F)F)cc2Cl)O1 (centres unmarked) [Compound 7-4]
- growth controlling degree, SIDSP ([1]; 63 g a.i./ha): 80%
- growth controlling degree, ABUTH ([2]; 63 g a.i./ha): 100%
- growth controlling degree, ORYSA ([3]; 63 g a.i./ha): 60%
- growth controlling degree, ECHCG ([4]; 63 g a.i./ha): 50%
- growth controlling degree, AMARE ([5]; 63 g a.i./ha): 95%
- growth controlling degree, ZEAMX ([6]; 63 g a.i./ha): 70%
- growth controlling degree, DIGSP ([7]; 63 g a.i./ha): 50%
- growth controlling degree, SETVI ([8]; 63 g a.i./ha): 80%
- growth controlling degree, GLXMA ([9]; 63 g a.i./ha): 50%
- growth controlling degree, DIGSP [15]: 100%
- growth controlling degree, SIDSP [16]: 100%
- growth controlling degree, ECHCG [17]: 70%
- growth controlling degree, SETVI [18]: 100%
- growth controlling degree, ZEAMX [19]: 40%
- growth controlling degree, ORYSA [20]: 30%
- growth controlling degree, XANST [21]: 10%
- growth controlling degree, ABUTH [22]: 100%
- growth controlling degree, AMARE [23]: 100%
- Water Application Herbicidal Activity SCPJO (growth controlling degree) [11]: 90%
- Water Application Herbicidal Activity ORYSA (growth controlling degree) [12]: 0%
- Water Application Herbicidal Activity ECHOR (growth controlling degree) [13]: 70%
